Results from article PMC9127185, “A Pyridazinone Compound for Effectively Treating Non-alcoholic Steatohepatitis by Targeting THRβ” (Frontiers in Chemistry, 2022).
“Also recorded” adds a separate entry of the source.

Experiment: Stability of liver microsomes study (mouse)
Format: in vitro ADME
Conditions: mouse liver microsomes 0.50 mg/ml, NADPH-generating system, 37°C, 0-90 min
Description: Hypersil GOLD C18 column (4.6 × 150 mm, 5 μm, Thermo). A 0.025% ammonia aqueous solution in water (solvent A) and acetonitrile (solvent B) were used as mobile phases with gradient elution. The gradient was as follows: 0.01 min, 15% B; 5 min, 20% B; 12 min, 80% B; 16 min, 80% B; 16.01 min, 15% B; 19 min, 15% B; and 19.01 min, stopped. The timing interval was 19 min, and the flow rate was set at 1 ml/min.
The incubation system was carried out in 0.05 M Tris/KCl buffer (PH = 7.4) and included the following: pyrazinone compounds dissolved with dimethyl sulfoxide (DMSO), mouse liver microsomes and human liver microsomes at 0.50 mg/ml, 1.30 mM nicotinamide adenine dinucleotide sodium phosphate (NADP), 3.30 mM glucose-6-phosphate disodium salt (G-6-P), 0.40 units/mL glucose-6-phosphate dehydrogenase (G-6-PDH), and 3.30 mM magnesium chloride. […] After preincubation for 3 min in an 850-rpm blender (37°C), liver microsomes were added to initiate the incubation reaction (37°C). The incubation time was 0, 30, 60, and 90 min. After incubation, an equal volume of cold acetonitrile was added to stop the reaction, and an internal standard (0.05 mg/ml acetaminophen solution) was added. The samples were centrifuged at 10,000 rpm for 10 min to precipitate proteins ([Day et al., 2017]; [Manne et al., 2018]), and the 10 µL of the supernatant was taken for HPLC analysis.

Metabolic stability / metabolite formation in liver microsomes: no metabolites; also recorded: stable
Compound: N#Cc1cn(-c2cc(Cl)c(Oc3cc(C4CCC4)c(=O)[nH]n3)c(Cl)c2)c(=O)[nH]c1=O [YWS01125, 1-(3,5-dichloro-4-((5-cyclobutyl-6-oxo-1,6-dihydropyridazin-3-yl)oxy)phenyl)-2,4-dioxo-1,2,3,4-tetrahydropyrimidine-5-carbonitrile]
